Consider three compounds from patent US20220363689A1, “INHIBITOR OF BTK AND MUTANTS THEREOF” (Newave Pharmaceutical Inc., priority 2019, published 2022).

The target in test [1] is T1, TXK (Homo sapiens, UniProt P42681).
T1 sequence (P42681 1-527): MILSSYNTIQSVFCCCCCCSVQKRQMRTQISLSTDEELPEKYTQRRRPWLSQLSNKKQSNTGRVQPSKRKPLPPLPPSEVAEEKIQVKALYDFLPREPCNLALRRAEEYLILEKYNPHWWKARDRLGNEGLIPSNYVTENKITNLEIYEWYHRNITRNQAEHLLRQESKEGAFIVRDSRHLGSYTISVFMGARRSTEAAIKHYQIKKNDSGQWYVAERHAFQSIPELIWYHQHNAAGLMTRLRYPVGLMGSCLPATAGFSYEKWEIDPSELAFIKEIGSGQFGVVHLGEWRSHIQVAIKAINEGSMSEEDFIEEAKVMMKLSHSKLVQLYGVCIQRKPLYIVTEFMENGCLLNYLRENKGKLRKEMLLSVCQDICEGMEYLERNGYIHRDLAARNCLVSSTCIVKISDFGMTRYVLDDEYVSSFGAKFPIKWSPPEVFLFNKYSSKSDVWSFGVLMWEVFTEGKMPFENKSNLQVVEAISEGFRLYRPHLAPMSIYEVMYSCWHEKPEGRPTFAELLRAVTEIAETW
Put plainly: Caliper-based kinase assay, off-target TXK. The test is classed as biochemical. The settings on record: Cys-481 homologous kinase panel. From the text: (§1) A Caliper-based kinase assay (Caliper Life Sciences, Hopkinton, Mass.) was used to measure inhibition of kinase activity of compounds of the present disclosure. […]

For test [2], the target named is T2, TEC (Homo sapiens, UniProt P42680).
T2 sequence (P42680 1-631): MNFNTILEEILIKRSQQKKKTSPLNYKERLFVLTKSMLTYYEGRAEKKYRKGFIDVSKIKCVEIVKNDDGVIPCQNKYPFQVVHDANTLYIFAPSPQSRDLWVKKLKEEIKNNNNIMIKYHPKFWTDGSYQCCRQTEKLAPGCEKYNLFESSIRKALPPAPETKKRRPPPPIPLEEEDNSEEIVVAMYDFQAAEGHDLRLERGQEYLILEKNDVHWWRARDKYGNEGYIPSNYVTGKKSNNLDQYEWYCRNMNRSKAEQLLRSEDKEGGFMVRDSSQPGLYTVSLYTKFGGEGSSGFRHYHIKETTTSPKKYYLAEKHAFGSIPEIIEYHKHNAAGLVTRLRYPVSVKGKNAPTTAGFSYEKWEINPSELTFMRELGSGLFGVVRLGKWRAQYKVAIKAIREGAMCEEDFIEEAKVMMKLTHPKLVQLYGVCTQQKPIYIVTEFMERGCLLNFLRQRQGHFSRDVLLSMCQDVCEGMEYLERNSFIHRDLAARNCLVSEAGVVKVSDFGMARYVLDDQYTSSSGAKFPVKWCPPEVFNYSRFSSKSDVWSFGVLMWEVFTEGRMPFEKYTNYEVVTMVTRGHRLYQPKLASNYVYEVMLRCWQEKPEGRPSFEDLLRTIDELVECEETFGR
Put plainly: Caliper-based kinase assay, off-target TEC. The test is classed as biochemical. The settings on record: Cys-481 homologous kinase panel.
Text: as §1

For test [3], the target named is T3, BMX (Homo sapiens, UniProt P51813).
T3 sequence (P51813 1-675): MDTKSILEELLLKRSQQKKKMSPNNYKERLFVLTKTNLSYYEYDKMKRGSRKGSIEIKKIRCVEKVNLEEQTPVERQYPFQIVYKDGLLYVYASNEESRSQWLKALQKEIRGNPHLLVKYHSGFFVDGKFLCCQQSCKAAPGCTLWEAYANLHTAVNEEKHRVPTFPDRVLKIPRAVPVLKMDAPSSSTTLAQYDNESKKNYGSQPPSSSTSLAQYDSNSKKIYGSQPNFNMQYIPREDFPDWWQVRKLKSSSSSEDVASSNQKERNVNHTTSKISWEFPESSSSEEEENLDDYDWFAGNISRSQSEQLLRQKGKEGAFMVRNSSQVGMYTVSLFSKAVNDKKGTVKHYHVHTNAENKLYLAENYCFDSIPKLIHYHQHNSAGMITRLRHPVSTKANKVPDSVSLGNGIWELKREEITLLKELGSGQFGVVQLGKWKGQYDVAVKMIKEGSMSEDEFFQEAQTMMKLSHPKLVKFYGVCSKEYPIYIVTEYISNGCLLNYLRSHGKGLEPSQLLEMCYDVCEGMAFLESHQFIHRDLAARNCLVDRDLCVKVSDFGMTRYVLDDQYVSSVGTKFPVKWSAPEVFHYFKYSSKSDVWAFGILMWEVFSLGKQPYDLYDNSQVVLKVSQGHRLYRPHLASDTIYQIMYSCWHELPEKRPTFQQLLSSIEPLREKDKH
The test can be described thus: Caliper-based kinase assay, off-target BMX. The test is classed as biochemical. The settings on record: Cys-481 homologous kinase panel.
Text: as §1

Test [4] concerns the target HER4 (Homo sapiens, UniProt Q15303). Put plainly: Caliper-based kinase assay, off-target HER4. The test is classed as biochemical. The settings on record: Cys-481 homologous kinase panel.
Text: as §1

In test [5] the target is BLK (Homo sapiens, UniProt P51451). The test can be described thus: Caliper-based kinase assay, off-target BLK. Format: biochemical. The settings on record: Cys-481 homologous kinase panel.
Chain of BLK (P51451 whole entry): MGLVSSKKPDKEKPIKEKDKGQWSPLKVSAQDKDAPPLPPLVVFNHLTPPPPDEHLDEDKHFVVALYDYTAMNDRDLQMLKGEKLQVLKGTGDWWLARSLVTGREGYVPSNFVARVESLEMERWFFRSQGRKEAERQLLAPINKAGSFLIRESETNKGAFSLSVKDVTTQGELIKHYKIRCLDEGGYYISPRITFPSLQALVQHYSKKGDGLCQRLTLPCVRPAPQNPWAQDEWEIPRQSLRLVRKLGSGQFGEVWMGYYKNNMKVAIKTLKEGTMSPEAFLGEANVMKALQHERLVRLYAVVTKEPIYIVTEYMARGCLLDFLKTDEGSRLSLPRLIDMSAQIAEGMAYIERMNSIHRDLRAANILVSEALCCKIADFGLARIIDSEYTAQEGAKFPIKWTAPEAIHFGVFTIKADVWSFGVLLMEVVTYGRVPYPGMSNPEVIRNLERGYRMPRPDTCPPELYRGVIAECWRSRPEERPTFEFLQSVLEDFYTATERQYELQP
Text: as §1

Test [6] has as its system human primary hepatocyte. The test can be described thus: Human primary hepatocyte cytotoxicity (ATPlite). The test is classed as cell-based. The settings on record: about 72 hours incubation. The procedure:
Cell viability assay is assayed by PerkinElmer ATPlite™ Luminescence Assay System. Briefly, the human primary hepatocyte are plated at a density of about 1×10^4 cells per well in Costar 96-well plates, and are incubated with different concentrations of compounds for about 72 hours in medium supplemented with 5% FBS. One lyophilized substrate solution vial is then reconstituted by adding 5 mL of substrate buffer solution, and is agitated gently until the solution is homogeneous. About 50 μL of mammalian cell lysis solution is added to 100 μL of cell suspension per well of a microplate, and the plate is shaken for about five minutes in an orbital shaker at −700 rpm. This procedure is used to lyse the cells and to stabilize the ATP. Next, 50 μL substrate solution is added to the wells and microplate is shaken for five minutes in an orbital shaker at −700 rpm. Finally, the luminescence is measured by a PerkinElmer TopCount® Microplate Scintillation Counter. Such assays, carried out with a range of doses of test compounds, allow the determination of the cellular anti-antiproliferative IC50 of the compounds of the present invention.
For orientation: In ATP-based viability assays light output follows the ATP content of the culture.

SMILES strings stand for the structures. A value given as a limit tells only on which side of the number the result lay.

Chain of HER4 (Q15303 26-1308): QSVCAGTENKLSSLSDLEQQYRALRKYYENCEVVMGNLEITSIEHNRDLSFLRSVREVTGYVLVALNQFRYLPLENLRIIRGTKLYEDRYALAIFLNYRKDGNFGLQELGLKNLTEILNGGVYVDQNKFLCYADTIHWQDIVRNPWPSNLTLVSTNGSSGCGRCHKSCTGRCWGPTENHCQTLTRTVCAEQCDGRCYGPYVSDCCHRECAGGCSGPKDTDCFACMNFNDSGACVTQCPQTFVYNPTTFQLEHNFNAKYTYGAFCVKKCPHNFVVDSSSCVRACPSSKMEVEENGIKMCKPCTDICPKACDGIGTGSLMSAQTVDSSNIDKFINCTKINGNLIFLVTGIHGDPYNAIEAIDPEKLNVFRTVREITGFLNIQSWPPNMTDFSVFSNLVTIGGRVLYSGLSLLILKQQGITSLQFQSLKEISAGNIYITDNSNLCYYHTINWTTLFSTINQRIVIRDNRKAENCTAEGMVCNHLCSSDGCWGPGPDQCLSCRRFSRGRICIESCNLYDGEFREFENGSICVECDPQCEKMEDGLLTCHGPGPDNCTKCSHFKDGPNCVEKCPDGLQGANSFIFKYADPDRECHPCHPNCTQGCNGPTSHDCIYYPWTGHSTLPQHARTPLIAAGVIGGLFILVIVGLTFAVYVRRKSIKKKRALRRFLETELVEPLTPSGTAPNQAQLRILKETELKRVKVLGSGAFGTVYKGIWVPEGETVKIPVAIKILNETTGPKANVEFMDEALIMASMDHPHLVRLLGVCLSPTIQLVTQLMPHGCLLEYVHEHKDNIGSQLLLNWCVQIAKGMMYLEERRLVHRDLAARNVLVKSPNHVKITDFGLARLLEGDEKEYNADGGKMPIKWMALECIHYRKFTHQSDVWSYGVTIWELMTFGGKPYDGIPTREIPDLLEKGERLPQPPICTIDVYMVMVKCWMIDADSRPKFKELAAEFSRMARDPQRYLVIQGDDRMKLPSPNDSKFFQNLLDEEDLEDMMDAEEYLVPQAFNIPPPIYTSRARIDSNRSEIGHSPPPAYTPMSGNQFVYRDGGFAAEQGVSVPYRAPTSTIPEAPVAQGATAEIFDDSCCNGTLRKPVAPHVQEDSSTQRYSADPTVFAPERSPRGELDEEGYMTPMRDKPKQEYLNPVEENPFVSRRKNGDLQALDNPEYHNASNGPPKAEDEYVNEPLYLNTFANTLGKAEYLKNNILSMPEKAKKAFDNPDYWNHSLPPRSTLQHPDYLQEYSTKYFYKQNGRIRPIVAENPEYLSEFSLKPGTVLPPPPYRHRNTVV

Regarding `CC(C)(/C=C(\C#N)C(=O)N1CCC[C@@H](n2nc(-c3ccc(Oc4ccccc4)cc3F)c3c(N)ncnc32)C1)N1CCN(C2COC2)CC1` [PRN-1008, reference compound], the IC50 – broadly, the concentration that inhibits the measured activity by half – was found to be 0.48 nM in test [1]; 0.67 nM in test [2]; 0.36 nM in test [3]; 3.1 nM in test [4]; 3.1 nM in test [5]; 23500 nM in test [6].

As to `C=CC(=O)Nc1cc(Nc2nc(-c3ccnc(N4CCn5c(cc6c5CC(C)(C)C6)C4=O)c3CO)cn(C)c2=O)ccc1N1CCN(C2CCOCC2)C[C@H]1C(F)(F)F` [Example 48-S, N-(5-[[6-(2-[4,4-dimethyl-9-oxo-1,10-diazatricyclo[6.4.0.0^[2,6]]dodeca-2(6),7-dien-10-yl]-3-(hydroxymethyl)pyridin-4-yl)-4-methyl-3-oxopyrazin-2-yl]amino]-2-[(2S)-4-(oxan-4-yl)-2-(trifluoromethyl)piperazin-1-yl]phenyl)prop-2-enamide], the IC50 was > 1000 nM in test [1]; 153 nM in test [2]; 155 nM in test [3]; > 1000 nM in test [4]; > 1000 nM in test [5]; 40900 nM in test [6].

Take `C=CC(=O)Nc1cc(Nc2nc(-c3ccnc(N4CCc5c(sc6c5CCCC6)C4=O)c3CO)cn(C)c2=O)ccc1N1CCN(C2CCOCC2)C[C@H]1C(F)(F)F` [Example 55-S, N-[5-([6-[3-(hydroxymethyl)-2-[6-oxo-8-thia-5-azatricyclo[7.4.0.0^[2,7]]trideca-1(9), 2(7)-dien-5-yl]pyridin-4-yl]-4-methyl-3-oxopyrazin-2-yl]amino)-2-[(2S)-4-(oxan-4-yl)-2-(trifluoromethyl)piperazin-1-yl]phenyl]prop-2-enamide]: the IC50 in test [1] is > 1000 nM; in test [2], 686 nM; in test [3], 183 nM; in test [4], > 1000 nM; in test [5], > 1000 nM; in test [6], > 100000 nM.
